Like-named read-outs stand apart in the source and are kept apart here.
System: recombinant NL4-3 virus (Renilla luciferase in nef, Gag P373S)
Assay: HIV Cell Culture Assay (luciferase reporter virus in MT-2 cells)
Format: cell-based
Method: MT-2 cells and 293T cells were obtained from the NIH AIDS Research and Reference Reagent Program. MT-2 cells were propagated in RPMI 1640 media supplemented with 10% heat inactivated fetal bovine serum, […]. The 293T cells were propagated in DMEM media supplemented with 10% heat inactivated fetal bovine serum (FBS), 100 units/ml penicillin G and 100 μg/ml streptomycin. The proviral DNA clone of NL4-3 was obtained from the NIH AIDS Research and Reference Reagent Program. A recombinant NL4-3 virus, in which a section of the nef gene from NL4-3 was replaced with the Renilla luciferase gene, was used as a reference virus. In addition, residue Gag P373 was converted to P373S. Briefly, the recombinant virus was prepared by transfection of the altered proviral clone of NL4-3. Transfections were performed in 293T cells using LipofectAMINE PLUS from Invitrogen (Carlsbad, Calif.), according to manufacturer's instruction. The virus was titered in MT-2 cells using luciferase enzyme activity as a marker. Luciferase was quantitated using the Dual Luciferase kit from Promega (Madison, Wis.), with modifications to the manufacturer's protocol. The diluted Passive Lysis solution was pre-mixed with the re-suspended Luciferase Assay Reagent and the re-suspended Stop & Glo Substrate (2:1:1 ratio). Fifty (50) μL of the mixture was added to each aspirated well on assay plates and luciferase activity was measured immediately on a Wallac TriLux (Perkin-Elmer). Antiviral activities of inhibitors toward the recombinant virus were quantified by measuring luciferase activity in cells infected for 4-5 days with NLRluc recombinants in the presence serial dilutions of the inhibitor. Table 1 is the key for the data in Table 2.

| SMILES | EC50 (NL43, read-out: EC50 Group) | EC50 (NL43) |
| --- | --- | --- |
| C=C(C)[C@@H]1CC[C@]2(C(=O)NCCN(C)C)CC[C@]3(C)[C@H](CC[C@@H]4[C@@]5(C)CC=C(c6ccc(C(=O)O)cc6)C(C)(C)[C@@H]5CC[C@]43C)[C@@H]12 [Example 16, 4-((1R,3aS,5aR,5bR,7aR,11aS,11bR,13aR,13bR)-3a-(2-(dimethylamino)ethylcarbamoyl)-5a,5b,8,8,11a-pentamethyl-1-(prop-1-en-2-yl)-2,3,3a,4,5,5a,5b,6,7,7a,8,11,11a,11b,12,13,13a,13b-octadecahydro-1H-cyclopenta[a]chrysen-9-yl)benzoic acid] | < 0.1 µM |  |
| C=C(C)[C@@H]1CC[C@]2(C(=O)NCCO)CC[C@]3(C)[C@H](CC[C@@H]4[C@@]5(C)CC=C(c6ccc(C(=O)O)cc6)C(C)(C)[C@@H]5CC[C@]43C)[C@@H]12 [Example 17, 4-((1R,3aS,5aR,5bR,7aR,11aS,11bR,13aR,13bR)-3a-(2-hydroxyethylcarbamoyl)-5a,5b,8,8,11a-pentamethyl-1-(prop-1-en-2-yl)-2,3,3a,4,5,5a,5b,6,7,7a,8,11,11a,11b,12,13,13a,13b-octadecahydro-1H-cyclopenta[a]chrysen-9-yl)benzoic acid] | < 0.1 µM |  |
| C=C(C)[C@@H]1CC[C@]2(C(=O)N(C)Cc3ccccc3)CC[C@]3(C)[C@H](CC[C@@H]4[C@@]5(C)CC=C(c6ccc(C(=O)O)cc6)C(C)(C)[C@@H]5CC[C@]43C)[C@@H]12 [Example 18, 4-((1R,3aS,5aR,5bR,7aR,11aS,11bR,13aR,13bR)-3a-(benzyl(methyl)carbamoyl)-5a,5b,8,8,11a-pentamethyl-1-(prop-1-en-2-yl)-2,3,3a,4,5,5a,5b,6,7,7a,8,11,11a,11b,12,13,13a,13b-octadecahydro-1H-cyclopenta[a]chrysen-9-yl)benzoic acid] | > 0.1 µM |  |
| C=C(C)[C@@H]1CC[C@]2(C(=O)N3CCCCC3)CC[C@]3(C)[C@H](CC[C@@H]4[C@@]5(C)CC=C(c6ccc(C(=O)O)cc6)C(C)(C)[C@@H]5CC[C@]43C)[C@@H]12 [Example 19, 4-((1R,3aS,5aR,5bR,7aR,11aS,11bR,13aR,13bR)-5a,5b,8,8,11a-pentamethyl-3a-(piperidine-1-carbonyl)-1-(prop-1-en-2-yl)-2,3,3a,4,5,5a,5b,6,7,7a,8,11,11a,11b,12,13,13a,13b-octadecahydro-1H-cyclopenta[a]chrysen-9-yl)benzoic acid] |  | 0.37 µM |
| C=C(C)[C@@H]1CC[C@]2(C(=O)NCCc3ccccn3)CC[C@]3(C)[C@H](CC[C@@H]4[C@@]5(C)CC=C(c6ccc(C(=O)OC)cc6)C(C)(C)[C@@H]5CC[C@]43C)[C@@H]12 [Example 20, methyl 4-((1R,3aS,5aR,5bR,7aR,11aS,11bR,13aR,13bR)-5a,5b,8,8,11a-pentamethyl-1-(prop-1-en-2-yl)-3a-(2-(pyridin-2-yl)ethylcarbamoyl)-2,3,3a,4,5,5a,5b,6,7,7a,8,11,11a,11b,12,13,13a,13b-octadecahydro-1H-cyclopenta[a]chrysen-9-yl)benzoate] | > 0.1 µM |  |
| C=C(C)[C@@H]1CC[C@]2(C(=O)N3CCC(O)CC3)CC[C@]3(C)[C@H](CC[C@@H]4[C@@]5(C)CC=C(c6ccc(C(=O)OC)cc6)C(C)(C)[C@@H]5CC[C@]43C)[C@@H]12 [Example 21, methyl 4-((1R,3aS,5aR,5bR,7aR,11aS,11bR,13aR,13bR)-3a-(4-hydroxypiperidine-1-carbonyl)-5a,5b,8,8,11a-pentamethyl-1-(prop-1-en-2-yl)-2,3,3a,4,5,5a,5b,6,7,7a,8,11,11a,11b,12,13,13a,13b-octadecahydro-1H-cyclopenta[a]chrysen-9-yl)benzoate] | > 0.1 µM |  |
| C=C(C)[C@@H]1CC[C@]2(C(=O)N3CCC(O)CC3)CC[C@]3(C)[C@H](CC[C@@H]4[C@@]5(C)CC=C(c6ccc(C(=O)O)cc6)C(C)(C)[C@@H]5CC[C@]43C)[C@@H]12 [Example 22, 4-((1R,3aS,5aR,5bR,7aR,11aS,11bR,13aR,13bR)-3a-(4-hydroxypiperidine-1-carbonyl)-5a,5b,8,8,11a-pentamethyl-1-(prop-1-en-2-yl)-2,3,3a,4,5,5a,5b,6,7,7a,8,11,11a,11b,12,13,13a,13b-octadecahydro-1H-cyclopenta[a]chrysen-9-yl)benzoic acid] | < 0.1 µM |  |
| C=C(C)[C@@H]1CC[C@]2(C(=O)N(C)CCO)CC[C@]3(C)[C@H](CC[C@@H]4[C@@]5(C)CC=C(c6ccc(C(=O)O)cc6)C(C)(C)[C@@H]5CC[C@]43C)[C@@H]12 [Example 23, 4-((1R,3aS,5aR,5bR,7aR,11aS,11bR,13aR,13bR)-3a-((2-hydroxyethyl)(methyl)carbamoyl)-5a,5b,8,8,11a-pentamethyl-1-(prop-1-en-2-yl)-2,3,3a,4,5,5a,5b,6,7,7a,8,11,11a,11b,12,13,13a,13b-octadecahydro-1H-cyclopenta[a]chrysen-9-yl)benzoic acid] | < 0.1 µM |  |
| C=C(C)[C@@H]1CC[C@]2(C(=O)N(C)CCc3ccccn3)CC[C@]3(C)[C@H](CC[C@@H]4[C@@]5(C)CC=C(c6ccc(C(=O)O)cc6)C(C)(C)[C@@H]5CC[C@]43C)[C@@H]12 [Example 24, 4-((1R,3aS,5aR,5bR,7aR,11aS,11bR,13aR,13bR)-5a,5b,8,8,11a-pentamethyl-3a-(methyl(2-(pyridin-2-yl)ethyl)carbamoyl)-1-(prop-1-en-2-yl)-2,3,3a,4,5,5a,5b,6,7,7a,8,11,11a,11b,12,13,13a,13b-octadecahydro-1H-cyclopenta[a]chrysen-9-yl)benzoic acid] |  | 0.048 µM |
| C=C(C)[C@@H]1CC[C@]2(C(=O)NCCC(=O)O)CC[C@]3(C)[C@H](CC[C@@H]4[C@@]5(C)CC=C(c6ccc(C(=O)O)cc6)C(C)(C)[C@@H]5CC[C@]43C)[C@@H]12 [Example 25, 4-((1R,3aS,5aR,5bR,7aR,11aS,11bR,13aR,13bR)-3a-(2-carboxyethylcarbamoyl)-5a,5b,8,8,11a-pentamethyl-1-(prop-1-en-2-yl)-2,3,3a,4,5,5a,5b,6,7,7a,8,11,11a,11b,12,13,13a,13b-octadecahydro-1H-cyclopenta[a]chrysen-9-yl)benzoic acid] | < 0.1 µM |  |
| C=C(C)[C@@H]1CC[C@]2(C(=O)NC)CC[C@]3(C)[C@H](CC[C@@H]4[C@@]5(C)CC=C(c6ccc(C(=O)O)cc6)C(C)(C)[C@@H]5CC[C@]43C)[C@@H]12 [Example 26, 4-((1R,3aS,5aR,5bR,7aR,11aS,11bR,13aR,13bR)-5a,5b,8,8,11a-pentamethyl-3a-(methylcarbamoyl)-1-(prop-1-en-2-yl)-2,3,3a,4,5,5a,5b,6,7,7a,8,11,11a,11b,12,13,13a,13b-octadecahydro-1H-cyclopenta[a]chrysen-9-yl)benzoic acid] | < 0.1 µM |  |
| C=C(C)[C@@H]1CC[C@]2(C(=O)NCCCN(C)C)CC[C@]3(C)[C@H](CC[C@@H]4[C@@]5(C)CC=C(c6ccc(C(=O)O)cc6)C(C)(C)[C@@H]5CC[C@]43C)[C@@H]12 [Example 27, 4-((1R,3aS,5aR,5bR,7aR,11aS,11bR,13aR,13bR)-3a-(3-(dimethylamino)propylcarbamoyl)-5a,5b,8,8,11a-pentamethyl-1-(prop-1-en-2-yl)-2,3,3a,4,5,5a,5b,6,7,7a,8,11,11a,11b,12,13,13a,13b-octadecahydro-1H-cyclopenta[a]chrysen-9-yl)benzoic acid] | < 0.1 µM |  |

Reference: patent US8802661B2, “C-28 amides of modified C-3 betulinic acid derivatives as HIV maturation inhibitors” (priority 2010, dated 2014)
